Assay results published in BindingDB's records for patent US20250034159 (Oric Pharmaceuticals, 2025).

Columns and labels:
[1] = molecular target: Epidermal growth factor receptor [L858R,C797S] (Human, UniProt P00533, C797S/L858R); experiment: Biochemical Assay Against EGFR L858R/C797S Protein (EGFR LR/CS)
Procedure: (§1) In wells A1 and A24, were added 12 μL of DMSO. […] To a well in Row A were added 12 μL of each 10 mM test compound stock (100% DMSO). […] The final intermediate dilution plate contained 4×16-point compound serial dilutions in assay buffer. The DMSO concentration was 10%. The intermediate compound dilution plate was transferred to the Bravo and the “5 uL dispense into ARP.pro” protocol was run. To the black low volume assay ready plates, were added 5 μL of 40 uM Phosphosens peptide sensor/4 mM ATP working solution to each well. […] To column 24, was added 10 μL of assay buffer. The final DMSO concentration was 2.5%.

[2] = molecular target: T1, Epidermal growth factor receptor [DEL746-750,C797S] (Homo sapiens, UniProt P00533, C797S/DEL746-750); experiment: Biochemical Assay Against EGFR Exon 19 Deletion/C797S Protein (EGFR d19/CS)
T1 construct: gene EGFR
Procedure: as §1

T1 sequence (P00533 with tags, fused parts or gaps C797S/DEL746-750 limits assumed): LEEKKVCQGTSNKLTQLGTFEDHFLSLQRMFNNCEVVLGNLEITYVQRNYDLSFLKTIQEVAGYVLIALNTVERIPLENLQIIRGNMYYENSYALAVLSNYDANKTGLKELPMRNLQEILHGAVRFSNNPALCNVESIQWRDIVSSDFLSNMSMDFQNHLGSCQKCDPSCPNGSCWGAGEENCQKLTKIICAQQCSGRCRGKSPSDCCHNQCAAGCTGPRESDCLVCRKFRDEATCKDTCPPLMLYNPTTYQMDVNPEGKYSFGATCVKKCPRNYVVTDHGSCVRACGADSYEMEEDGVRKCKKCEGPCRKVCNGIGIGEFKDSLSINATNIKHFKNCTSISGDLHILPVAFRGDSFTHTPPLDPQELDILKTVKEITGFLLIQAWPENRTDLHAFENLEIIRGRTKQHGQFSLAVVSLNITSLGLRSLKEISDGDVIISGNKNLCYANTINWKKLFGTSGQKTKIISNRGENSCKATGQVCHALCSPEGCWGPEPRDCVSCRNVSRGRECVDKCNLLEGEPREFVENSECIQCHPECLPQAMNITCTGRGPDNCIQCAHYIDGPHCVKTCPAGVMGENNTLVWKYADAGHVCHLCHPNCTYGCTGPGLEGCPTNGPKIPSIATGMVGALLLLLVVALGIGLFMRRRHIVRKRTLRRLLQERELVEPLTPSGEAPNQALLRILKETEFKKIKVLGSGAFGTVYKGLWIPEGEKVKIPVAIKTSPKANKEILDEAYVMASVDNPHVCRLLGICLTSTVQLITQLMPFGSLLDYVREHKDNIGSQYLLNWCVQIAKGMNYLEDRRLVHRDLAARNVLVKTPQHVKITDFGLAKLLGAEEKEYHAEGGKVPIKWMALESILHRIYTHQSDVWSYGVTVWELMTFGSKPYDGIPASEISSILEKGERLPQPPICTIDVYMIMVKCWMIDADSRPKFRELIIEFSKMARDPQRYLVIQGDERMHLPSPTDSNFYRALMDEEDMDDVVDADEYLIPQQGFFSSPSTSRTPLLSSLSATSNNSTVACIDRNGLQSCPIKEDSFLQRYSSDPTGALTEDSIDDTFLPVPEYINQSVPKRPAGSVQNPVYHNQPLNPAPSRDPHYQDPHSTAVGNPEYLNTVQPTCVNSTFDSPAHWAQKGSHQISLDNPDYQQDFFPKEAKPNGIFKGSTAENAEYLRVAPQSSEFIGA
Epidermal growth factor receptor [L858R,C797S], sequence (P00533 25-1210 C797S/L858R limits assumed): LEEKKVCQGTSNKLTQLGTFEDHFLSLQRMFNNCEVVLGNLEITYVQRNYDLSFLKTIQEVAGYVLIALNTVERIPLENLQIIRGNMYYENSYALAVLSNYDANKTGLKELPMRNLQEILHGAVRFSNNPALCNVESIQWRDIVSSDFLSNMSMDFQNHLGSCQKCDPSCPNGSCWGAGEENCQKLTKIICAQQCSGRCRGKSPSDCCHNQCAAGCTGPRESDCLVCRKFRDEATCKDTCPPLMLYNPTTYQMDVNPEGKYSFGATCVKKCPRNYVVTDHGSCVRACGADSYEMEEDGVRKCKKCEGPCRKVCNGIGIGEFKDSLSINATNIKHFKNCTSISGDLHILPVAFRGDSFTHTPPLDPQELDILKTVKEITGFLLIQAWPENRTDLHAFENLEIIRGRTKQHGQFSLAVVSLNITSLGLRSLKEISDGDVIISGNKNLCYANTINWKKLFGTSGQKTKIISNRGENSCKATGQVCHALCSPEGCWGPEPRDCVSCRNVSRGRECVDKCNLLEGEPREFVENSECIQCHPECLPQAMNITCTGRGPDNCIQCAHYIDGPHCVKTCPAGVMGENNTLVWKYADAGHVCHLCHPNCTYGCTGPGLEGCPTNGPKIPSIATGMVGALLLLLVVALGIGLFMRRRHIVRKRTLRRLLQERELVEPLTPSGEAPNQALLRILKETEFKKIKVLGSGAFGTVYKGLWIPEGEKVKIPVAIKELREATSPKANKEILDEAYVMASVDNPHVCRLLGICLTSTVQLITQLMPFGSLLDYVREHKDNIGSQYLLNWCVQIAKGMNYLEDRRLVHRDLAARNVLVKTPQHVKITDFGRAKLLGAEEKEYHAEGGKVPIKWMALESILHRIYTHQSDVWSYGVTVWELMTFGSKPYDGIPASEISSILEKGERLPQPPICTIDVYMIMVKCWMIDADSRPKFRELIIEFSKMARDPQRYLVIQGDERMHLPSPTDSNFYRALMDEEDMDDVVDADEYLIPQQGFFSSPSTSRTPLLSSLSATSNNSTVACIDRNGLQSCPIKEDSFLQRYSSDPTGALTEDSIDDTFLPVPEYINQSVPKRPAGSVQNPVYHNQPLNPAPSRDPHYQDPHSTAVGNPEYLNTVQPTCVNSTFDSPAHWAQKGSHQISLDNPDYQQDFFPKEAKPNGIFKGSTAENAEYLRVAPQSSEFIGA

Row | IC50 [1] | IC50 [2] | Compound
1 | 6.32 nM | 8.54 nM | O=S1(=O)CCC(n2cc(-c3ncnc4oc(-c5ccccc5)cc34)c(-c3ccc(F)cc3)n2)CC1 [US20250034159, Example 83]
2 | – | 2.41 nM | Fc1ccc(-c2nn(CCOC(F)(F)F)cc2-c2ncnc3oc(-c4ccccc4)cc23)cc1 [US20250034159, Example 144]
3 | – | 0.57 nM | Fc1ccc(-c2nn(CCC(F)F)cc2-c2ccnc3oc(-c4ccccc4)cc23)cc1 [US20250034159, Example 157]
4 | – | 0.42 nM | O=S1(=O)CC(n2cc(-c3ncnc4oc(C5=CCN(S(=O)(=O)C6CC6)CC5)cc34)c(-c3ccc(F)cc3)n2)C1 [US20250034159, Example 177]
